According to patent US20250388571A1, “AMP-ACTIVATED PROTEIN KINASE MODULATOR COMPOUNDS AND USES THEREOF” (Biolexis Therapeutics, Inc., priority 2024, published 2025):
Entries after “also recorded” stand apart in the source; their conditions may differ. Read-outs that look alike come from different tables or passages of the source.

Legend:
[1] = tested on: human cardiomyocyte cells (HCM); test: Glucose uptake assay, human cardiomyocyte cells; assay type: cell-based; conditions: for AMPK activation activity (glucose uptake assay): 10 doses 100 μM to 0.005 μM
[2] = PK oral bioavailability experiment, mouse; assay type: in vivo, male Swiss Albino Mouse; conditions: 1 mg/kg intravenous, 5 mg/kg oral
Description: A total of 24 male Swiss albino mouse were allotted for the study, Animals were allotted to 2 groups containing 12 mice/group, on day of dosing all the animals were fasted 3 hours before dosing. The test formulation was administered as a single dose by intravenous and oral route via tail vein and oral gavage needle at a dose of 1 and 5 mg/kg with a dose volume of 5 and 10 mL/kg, respectively.
Approximately 0.1 mL of blood sample from each animal was collected via retro orbital at predetermined time points (3 animals/Timepoint) in pre-labeled Eppendorf tubes containing anticoagulant. After blood collection at 0.5 h and 1 h, after collection of CSF, whole blood was withdrawn, and brain tissue was collected as a terminal sampling. Blood samples were centrifuged at 10000 rpm for 5 min under refrigeration (2-4° C.) within 0.5 h to obtain plasma. The separated plasma samples were collected in pre labeled tubes within 60 min of separation and stored at −20° C. up to 24 h. Post 24 h sample collection, all plasma samples were transferred to deep freezer custodian to store below or at −70° C. until shipment.
Similarly, CSF and Brain were collected at 0.5 h and 1h time point by scarification. Tissues were blotted and dried and then transferred to 15 mL falcon tubes. Initially all tissue samples were stored at −20±3° C. Later all brain tissue samples were homogenized with PBS at 1:4 ratio and the brain homogenate were transferred to deep freezer (−70±10° C.) and stored.
The PK parameters were evaluated using Phoenix WinNonlin® Ent-Version 8.3 by non-compartmental analysis.

high fat diet mice = conditions: for % Body (percentage change in body weight): up to day 36

Structure (SMILES): O=c1[nH]c(-c2c[nH]c3cc(F)c(-c4ccc(C5(O)CCC5)cc4)c(F)c23)no1 [Compound I-11, 3-(4,6-difluoro-5-(4-(1-hydroxycyclobutyl)phenyl)-1H-indol-3-yl)-1,2,4-oxadiazol-5(4H)-one]
- AMPK activation activity (glucose uptake assay) ([1]; diabetic donor): did not show AMPK activation activity
- glucose uptake ([1]; donor not stated): did not induce glucose uptake in dose-dependent manner; also recorded: did not activate glucose uptake
- AMPK activation activity (glucose uptake assay) ([1]; healthy donor): did not show AMPK activation activity
- clearance [2]: low clearance
- elimination [2]: biphasic elimination
- systemic exposure [2]: moderate systemic exposure
- % fat mass (high fat diet mice; 30 mg/kg p.o. QD, Day 14): 53.75 ± 0.88%
- area (cm^2; DEXA scan) (high fat diet mice; 30 mg/kg p.o. QD, Day 14): 13.26 ± 0.24 cm^2
- bone mineral content (BMC) (high fat diet mice; 30 mg/kg p.o. QD, Day 14): 1.04 ± 0.02
- bone mineral density (BMD) (high fat diet mice; 30 mg/kg p.o. QD, Day 14): 0.08 ± 0.00
- fat mass (gm) (high fat diet mice; 30 mg/kg p.o. QD, Day 14): 27.97 ± 0.67 gm
- lean+bone mineral content (BMC-gm) (high fat diet mice; 30 mg/kg p.o. QD, Day 14): 24.11 ± 0.71 gm
- total mass (gm) (high fat diet mice; 30 mg/kg p.o. QD, Day 14): 52.05 ± 1.04 gm
- % fat mass (high fat diet mice; 30 mg/kg p.o. QD, Day −3): 46.39 ± 0.83%
- area (cm^2; DEXA scan) (high fat diet mice; 30 mg/kg p.o. QD, Day −3): 12.61 ± 0.23 cm^2
- bone mineral content (BMC) (high fat diet mice; 30 mg/kg p.o. QD, Day −3): 1.01 ± 0.01
- bone mineral density (BMD) (high fat diet mice; 30 mg/kg p.o. QD, Day −3): 0.08 ± 0.00
- fat mass (gm) (high fat diet mice; 30 mg/kg p.o. QD, Day −3): 23.20 ± 0.60 gm
- lean+bone mineral content (BMC-gm) (high fat diet mice; 30 mg/kg p.o. QD, Day −3): 26.78 ± 0.50 gm
- total mass (gm) (high fat diet mice; 30 mg/kg p.o. QD, Day −3): 49.96 ± 0.75 gm
- % Body (percentage change in body weight) (high fat diet mice; 30 mg/kg p.o. QD): 1.40 ± 0.21%
- % fat mass (high fat diet mice; 50 mg/kg p.o. QD, Day 14): 50.05 ± 1.02%
- area (cm^2; DEXA scan) (high fat diet mice; 50 mg/kg p.o. QD, Day 14): 12.93 ± 0.23 cm^2
- bone mineral content (BMC) (high fat diet mice; 50 mg/kg p.o. QD, Day 14): 1.04 ± 0.02
- bone mineral density (BMD) (high fat diet mice; 50 mg/kg p.o. QD, Day 14): 0.08 ± 0.00
- fat mass (gm) (high fat diet mice; 50 mg/kg p.o. QD, Day 14): 25.95 ± 0.84 gm
- lean+bone mineral content (BMC-gm) (high fat diet mice; 50 mg/kg p.o. QD, Day 14): 25.83 ± 0.49 gm
- total mass (gm) (high fat diet mice; 50 mg/kg p.o. QD, Day 14): 51.78 ± 0.85 gm
- % fat mass (high fat diet mice; 50 mg/kg p.o. QD, Day −3): 46.37 ± 2.15%
- area (cm^2; DEXA scan) (high fat diet mice; 50 mg/kg p.o. QD, Day −3): 12.56 ± 0.30 cm^2
- bone mineral content (BMC) (high fat diet mice; 50 mg/kg p.o. QD, Day −3): 1.01 ± 0.02
- bone mineral density (BMD) (high fat diet mice; 50 mg/kg p.o. QD, Day −3): 0.08 ± 0.00
- fat mass (gm) (high fat diet mice; 50 mg/kg p.o. QD, Day −3): 23.44 ± 1.29 gm
- lean+bone mineral content (BMC-gm) (high fat diet mice; 50 mg/kg p.o. QD, Day −3): 26.97 ± 1.03 gm
- total mass (gm) (high fat diet mice; 50 mg/kg p.o. QD, Day −3): 50.40 ± 0.80 gm
- % Body (percentage change in body weight) (high fat diet mice; 50 mg/kg p.o. QD): −0.34 ± 0.73%
- clinical signs, morbidity, mortality (high fat diet mice; 30 and 50 mg/kg p.o. QD for 36 days): no observations of clinical signs or morbidity, and no mortality
